From patent publication US9505768B2, “Compositions and methods for modulating TLR4” (The Regents of the University of California, priority 2012, dated 2016)

What was measured:
Type in all cases: cell-based
[1] = test system: mouse bone marrow derived dendritic cells (mBMDC); experiment: IL-6 induction in mouse bone marrow derived dendritic cells (ELISA); settings: relative to Cmpd 1 / within series
Procedure: (§1) The above assays were utilized to compare the derivatives of the lead pyrimidoindole for their ability to activate mouse and human TLR4. […] Each cytokine induction curve was first converted to a percent activity curve, and then the AUC of the percent activity curve was calculated. The process of converting to a percent activity curve allowed subtracting background and adjusting for plate-to-plate variation.
BMDC were prepared from C57BL/6 mice as described. See e.g., Wu, C. […] BMDC (10^5 cells per well) were plated in 96-well plates in 200 μL of complete RPMI1640 supplemented with 10% fetal calf serum (FCS; Sigma Aldrich), 100 U/mL penicillin, and 100 μg/mL streptomycin (Invitrogen). […] After 18 h incubation, the cell culture supernatants were collected. LPS (purified LPS, Invivogen, San Diego, Calif.) or MPLA (1 μg/mL synthetic MPLA, Invivogen, San Diego, Calif.) were used as positive controls. […] The AUC was calculated from BMDC dose-response curves using Prism 5 (GraphPad, San Diego). Each cytokine induction curve was first converted to a percent activity curve, and then the AUC of the percent activity curve was calculated. The process of converting to a percent activity curve allowed subtracting background and adjusting for plate-to-plate variation.

mouse TLR4 = target: T1, mouse TLR4 (Mus musculus, UniProt Q9JHF9+Q9QUK6); experiment: Murine TLR4 HEK Blue NFκB/SEAP reporter assay; settings: mTLR4 HEK transfectoma, 312 nM to 10 μM; Cmpd 1 set at 100
T1 construct: host or cells: HEK293 (HEK Blue) cells with NFκB/SEAP reporter
T1 sequence (Q9QUK6 26-835): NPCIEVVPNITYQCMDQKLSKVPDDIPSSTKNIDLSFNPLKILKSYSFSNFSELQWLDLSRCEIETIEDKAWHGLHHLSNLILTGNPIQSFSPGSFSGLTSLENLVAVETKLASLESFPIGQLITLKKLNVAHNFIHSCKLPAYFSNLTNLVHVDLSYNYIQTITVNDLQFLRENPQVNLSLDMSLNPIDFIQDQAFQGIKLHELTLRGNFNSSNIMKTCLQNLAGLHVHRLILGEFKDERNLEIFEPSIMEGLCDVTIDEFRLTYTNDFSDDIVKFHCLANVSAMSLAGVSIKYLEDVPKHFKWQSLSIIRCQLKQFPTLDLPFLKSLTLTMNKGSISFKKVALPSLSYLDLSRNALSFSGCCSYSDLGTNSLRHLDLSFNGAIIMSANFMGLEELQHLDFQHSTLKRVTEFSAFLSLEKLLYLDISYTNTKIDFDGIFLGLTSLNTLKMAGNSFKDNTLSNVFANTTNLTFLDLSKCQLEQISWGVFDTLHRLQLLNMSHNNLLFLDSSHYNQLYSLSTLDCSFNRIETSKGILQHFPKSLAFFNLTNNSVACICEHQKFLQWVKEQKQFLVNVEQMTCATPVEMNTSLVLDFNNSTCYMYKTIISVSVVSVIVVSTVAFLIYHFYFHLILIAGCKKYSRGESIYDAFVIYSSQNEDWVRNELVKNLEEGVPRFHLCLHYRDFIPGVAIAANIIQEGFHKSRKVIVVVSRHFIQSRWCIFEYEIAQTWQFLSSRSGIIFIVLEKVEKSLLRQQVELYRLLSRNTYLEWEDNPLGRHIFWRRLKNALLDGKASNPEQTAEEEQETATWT
T1 sequence (Q9JHF9 19-160): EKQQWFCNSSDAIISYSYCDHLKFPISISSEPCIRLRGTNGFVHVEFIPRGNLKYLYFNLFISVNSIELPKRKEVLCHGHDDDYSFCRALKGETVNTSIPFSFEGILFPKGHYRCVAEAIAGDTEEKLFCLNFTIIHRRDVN
Procedure: as §1
(§2) The culture supernatants were harvested after a 20-24 h incubation period. SEAP activity in the supernatants was determined by a colorimetric assay, using either the SEAPorter Assay Kit (Imgenex), with absorbance read at 405 nm, or QuantiBlue (Invivogen), with absorbance read at 630 nm.

human TLR4 = target: T2, human TLR4 (Homo sapiens, UniProt O00206+Q9Y6Y9); experiment: Human TLR4 HEK Blue NFκB/SEAP reporter assay; settings: hTLR4 HEK293 transfectoma; all compounds tested at 10 μM; Cmpd 1 set at 100
T2 construct: host or cells: HEK293 (HEK Blue) cells with NFκB/SEAP reporter
Procedure: as §1, §2

T2 sequence (O00206 24-839): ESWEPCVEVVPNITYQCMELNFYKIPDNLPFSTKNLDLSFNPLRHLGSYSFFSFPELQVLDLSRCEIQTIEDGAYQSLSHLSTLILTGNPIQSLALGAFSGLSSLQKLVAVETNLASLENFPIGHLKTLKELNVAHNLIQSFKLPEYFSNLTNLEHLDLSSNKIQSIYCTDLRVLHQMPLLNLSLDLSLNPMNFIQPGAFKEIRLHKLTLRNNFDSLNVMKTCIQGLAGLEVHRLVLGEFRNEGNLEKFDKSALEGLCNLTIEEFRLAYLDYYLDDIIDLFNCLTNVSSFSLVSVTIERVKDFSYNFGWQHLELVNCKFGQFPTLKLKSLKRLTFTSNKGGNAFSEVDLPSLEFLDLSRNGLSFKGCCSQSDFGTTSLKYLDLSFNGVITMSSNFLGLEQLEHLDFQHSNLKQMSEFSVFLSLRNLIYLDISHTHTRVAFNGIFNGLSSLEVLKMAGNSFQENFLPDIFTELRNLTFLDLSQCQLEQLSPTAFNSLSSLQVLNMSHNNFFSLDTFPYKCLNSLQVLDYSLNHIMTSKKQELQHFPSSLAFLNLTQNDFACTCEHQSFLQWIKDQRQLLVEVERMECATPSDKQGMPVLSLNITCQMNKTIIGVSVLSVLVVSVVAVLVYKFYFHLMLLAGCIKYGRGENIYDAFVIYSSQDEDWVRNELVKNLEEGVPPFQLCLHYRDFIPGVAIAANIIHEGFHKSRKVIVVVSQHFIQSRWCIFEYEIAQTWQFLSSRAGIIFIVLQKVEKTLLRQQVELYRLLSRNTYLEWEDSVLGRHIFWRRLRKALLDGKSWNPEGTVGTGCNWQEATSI
T2 sequence (Q9Y6Y9 19-160): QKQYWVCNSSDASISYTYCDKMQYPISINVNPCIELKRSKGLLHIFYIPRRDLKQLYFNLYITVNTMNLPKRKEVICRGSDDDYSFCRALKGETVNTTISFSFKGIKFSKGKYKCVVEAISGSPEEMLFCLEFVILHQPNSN

Row | mouse TLR4, area under curve (AUC) values normalized to Cmpd 1 (mouse TLR4) | human TLR4, values normalized to Cmpd 1 (human TLR4) | Compound | IL-6 activity in mBMDC (in words) [1]
1 | 8 | 11 | NC(=O)Cn1c2ccccc2c2nc(SCC(=O)NC3CCCCC3)n(-c3ccccc3)c(=O)c21 [Compound 52, 2-((5-(2-amino-2-oxoethyl)-4-oxo-3-phenyl-4,5-dihydro-3H-pyrimido[5,4-b]indol-2-yl)thio)-N-cyclohexylacetamide] | 
2 | 1 | <1 | CN(C(=O)CSc1nc2c3ccccc3n(C)c2c(=O)n1-c1ccccc1)C1CCCCC1 [Compound 43, N-cyclohexyl-N-methyl-2-((5-methyl-4-oxo-3-phenyl-4,5-dihydro-3H-pyrimido[5,4-b]indol-2-yl)thio)acetamide] | total loss of IL-6 activity
3 | 5 | 27 | O=C(CSc1nc2c([nH]c3ccccc32)c(=O)n1-c1ccccc1)NCc1ccco1 [Compound 19, N-(furan-2-ylmethyl)-2-((4-oxo-3-phenyl-4,5-dihydro-3H-pyrimido[5,4-b]indol-2-yl)thio)acetamide] | 
4 | 2 | 21 | O=C(CSc1nc2c([nH]c3ccccc32)c(=O)n1-c1ccccc1)Nc1ccc2ccccc2c1 [Compound 18, N-(naphthalen-2-yl)-2-((4-oxo-3-phenyl-4,5-dihydro-3H-pyrimido[5,4-b]indol-2-yl)thio)acetamide] | 
5 | <1 | <1 | CCCCCCCC/C=C\CCCCCCCC(=O)OCC(COP(=O)(O)OCCNC(=O)CSc1nc2c([nH]c3ccccc32)c(=O)n1-c1ccccc1)OC(=O)CCCCCCC/C=C\CCCCCCCC (stereo not drawn) [Compound 35, (Z)-3-((hydroxy(2-(2-((4-oxo-3-phenyl-4,5-dihydro-3H-pyrimido[5,4-b]indol-2-yl)thio)acetamido)ethoxy)phosphoryl)oxy)propane-1,2-diyl dioleate] | 
6 | 6 | 3 | O=C(CSc1nc2c([nH]c3ccccc32)c(=O)n1-c1ccc2ccccc2c1)NC1CCCCC1 [Compound 39, N-cyclohexyl-2-((3-(naphthalen-2-yl)-4-oxo-4,5-dihydro-3H-pyrimido[5,4-b]indol-2-yl)thio)acetamide] | total loss of activity
7 | <1 | 6 | CC(C)(C)NC(=O)CSc1nc2c([nH]c3ccccc32)c(=O)n1-c1ccccc1 [Compound 32, N-(tert-butyl)-2-((4-oxo-3-phenyl-4,5-dihydro-3H-pyrimido[5,4-b]indol-2-yl)thio)acetamide] | 
8 | 8 | 11 | CCC(CC)NC(=O)CSc1nc2c([nH]c3ccccc32)c(=O)n1-c1ccccc1 [Compound 31, 2-((4-oxo-3-phenyl-4,5-dihydro-3H-pyrimido[5,4-b]indol-2-yl)thio)-N-(pentan-3-yl)acetamide] | 
9 | 42 | 23 | CCCCCNC(=O)CSc1nc2c([nH]c3ccccc32)c(=O)n1-c1ccccc1 [Compound 24, 2-((4-oxo-3-phenyl-4,5-dihydro-3H-pyrimido[5,4-b]indol-2-yl)thio)-N-pentylacetamide] | 
10 | <1 | 8 | CCNC(=O)CSc1nc2c([nH]c3ccccc32)c(=O)n1-c1ccccc1 [Compound 22, N-ethyl-2-((4-oxo-3-phenyl-4,5-dihydro-3H-pyrimido[5,4-b]indol-2-yl)thio)acetamide] | 
11 | 2 | 12 | O=C(CSc1nc2c([nH]c3ccccc32)c(=O)n1-c1ccccc1)Nc1nccs1 [Compound 21, 2-((4-oxo-3-phenyl-4,5-dihydro-3H-pyrimido[5,4-b]indol-2-yl)thio)-N-(thiazol-2-yl)acetamide] | 
12 | 4 | 10 | CCCCCCCCCCCCn1c2ccccc2c2nc(SCC(=O)NC3CCCCC3)n(-c3ccccc3)c(=O)c21 [Compound 50, N-cyclohexyl-2-((5-dodecyl-4-oxo-3-phenyl-4,5-dihydro-3H-pyrimido[5,4-b]indol-2-yl)thio)acetamide] | 
13 | 6 | 11 | CCCCCn1c2ccccc2c2nc(SCC(=O)NC3CCCCC3)n(-c3ccccc3)c(=O)c21 [Compound 49, N-cyclohexyl-2-((4-oxo-5-pentyl-3-phenyl-4,5-dihydro-3H-pyrimido[5,4-b]indol-2-yl)thio)acetamide] | 
14 | <1 | <1 | O=C(CSc1nc2c([nH]c3ccccc32)c(=O)n1-c1ccccc1)NC1CCNCC1 [Compound 34, 2-((4-oxo-3-phenyl-4,5-dihydro-3H-pyrimido[5,4-b]indol-2-yl)thio)-N-(piperidin-4-yl)acetamide] | 

Row | Compound | mouse TLR4, area under curve (AUC) values normalized to Cmpd 1 (mouse TLR4) | human TLR4, values normalized to Cmpd 1 (human TLR4) | IL-6 activity in mBMDC (in words) [1]
15 | O=C(CSc1nc2c([nH]c3ccccc32)c(=O)n1CCc1ccccc1)NC1CCCCC1 [Compound 40, N-cyclohexyl-2-((4-oxo-3-phenethyl-4,5-dihydro-3H-pyrimido[5,4-b]indol-2-yl)thio)acetamide] | 1 | 1 | total loss of activity
16 | CCCCCCNC(=O)CSc1nc2c([nH]c3ccccc32)c(=O)n1-c1ccccc1 [Compound 25, N-hexyl-2-((4-oxo-3-phenyl-4,5-dihydro-3H-pyrimido[5,4-b]indol-2-yl)thio)acetamide] | 4 | 8 | 
17 | O=C(CSc1nc2c([nH]c3ccccc32)c(=O)n1C1CCCCC1)NC1CCCCC1 [Compound 36, N-cyclohexyl-2-((3-cyclohexyl-4-oxo-4,5-dihydro-3H-pyrimido[5,4-b]indol-2-yl)thio)acetamide] | 56 | 40 | some loss of activity
18 | O=C(CSc1nc2c([nH]c3ccccc32)c(=O)n1-c1ccccc1)Nc1ccc2cn[nH]c2c1 [Compound 20, N-(1H-indazol-6-yl)-2-((4-oxo-3-phenyl-4,5-dihydro-3H-pyrimido[5,4-b]indol-2-yl)thio)acetamide] | <1 | <1 | 
19 | O=C(CSc1nc2c([nH]c3ccccc32)c(=O)n1-c1ccccc1)NC1CCCC1 [Compound 11, N-cyclopentyl-2-((4-oxo-3-phenyl-4,5-dihydro-3H-pyrimido[5,4-b]indol-2-yl)thio)acetamide] | 28 | 23 | 
20 | O=C(CSc1nc2c([nH]c3ccccc32)c(=O)n1C1CCCCC1)NC1CCCC1 [Compound 41, 2-((3-Cyclohexyl-4-oxo-4,5-dihydro-3H-pyrimido[5,4-b]indol-2-yl)thio)-N-cyclopentylacetamide] | 19 | 33 | partial loss of activity
